In patent US20090030086A1, “ANTIMICROBIAL AGENTS” (priority 2005, published 2009):
≈ marks a conversion by molar mass, not a printed value. Where two headings read alike, the source gives them in different places.

Assays:
[1] = test system: S. aureus ATCC 29213; assay: MIC assay; assay type: cell-based, Staphylococcus aureus
Method: 1. Staphylococcus aureus—the principal staphylococcal test micro-organism used in these studies was Staphylococcus aureus ATCC 29213. This strain is the one recommended for QC/QA purposes in Minimum Inhibitory Concentration (MIC) assays by the US Clinical and Laboratory Standards Institute (formerly the NCCLS), an FDA-recognised body.
(§1) The staphylococci and enterococci were cultured and maintained on Mueller-Hinton Medium (agar and broth) at pH 7.2; they were incubated aerobically at 37° C. for 24 hours.
(§2) This is a standard international method for quantitatively assessing the antimicrobial activity of a compound in a liquid medium. The method used a 96-well microtitre plate, capable of holding about 200 μl of liquid per well. […] The culture media were as described above for the relevant test organisms.
(§3) The wells were inoculated with a liquid suspension of freshly grown micro-organism and incubated under the conditions described above. After incubation, the microtitre plate was examined visually (with the aid of a light box) for cloudiness in each well, which would indicate microbial growth. The MIC value was recorded as the lowest concentration of test compound required to inhibit microbial growth, i.e., the lowest concentration for which the liquid in the well remained clear.
(§4) The assays were conducted in duplicate and included both negative (culture medium only) and positive (culture medium, diluting solvent and inoculum) controls.
(§5) The following experiments all used S. aureus ATCC 29213 as the test organism. MIC, MBC and DDA assays, as described above, were carried out using a range of different benzoquinones and hydroquinones. Supplemented DDA assays, in the presence of salt, lipid and blood, were also conducted.

[2] = test system: S. aureus ATCC 29213; assay: MBC assay; assay type: cell-based, Staphylococcus aureus
Method: as §1
(§6) This assay, normally carried out after an MIC assay, determines the minimum concentration of a compound that is lethal to the micro-organism being tested.
(§7) These samples were then individually sub-cultured on non-selective agar medium, under the incubation conditions described above. Following incubation they were examined visually for bacterial growth.
as §5

[3] = test system: S. aureus ATCC 29213; assay: Disc diffusion assay (DDA); assay type: cell-based, Staphylococcus aureus; conditions: for zone of inhibition at 200 µg/disc: Staphylococcus aureus
Method: as §1
(§8) A sterile paper disc was impregnated with a sample of the test compound and a minimum of 30 minutes allowed for the solvents to evaporate as far as possible. The disc was then placed on an agar plate onto which the test micro-organism had been inoculated. The plate was then incubated under the conditions described above, following which it was examined visually for signs of bacterial growth. […] The diameter of this zone of “inhibition” was measured using a ProtoCOL™ automated zone sizer (Synbiosis, Cambridge, UK).
(§9) The area of the zone of inhibition was calculated from the measured zone diameter (D) using the formula π(D/2)^2.
(§10) For most DDA assays, 200 μg of each compound was loaded onto each disc.

[4] = test system: S. aureus ATCC 29213; assay: Supplemented disc diffusion assay; assay type: cell-based, Staphylococcus aureus; conditions: for zone of inhibition at 200 µg/disc: Staphylococcus aureus, ATCC29213, 24 h
Method: as §1, §8
(§11) Performance under these conditions can provide a more reliable indication of activity on topical application. For assays conducted using S. aureus strains, the supplements were defibrinated horse blood (5% v/v), lipid (Tween™ 80 at 1% v/v) and sodium chloride (100 mM). For those using Propionibacterium spp. strains, the supplements were lipid (Tween™ 80 at 1% v/v) and sodium chloride (100 mM).
as §5, §10

[5] = test system: P. acnes NCTC 737; assay: MIC assay; assay type: cell-based, Propionibacterium acnes
Method: 2. Propionibacterium spp.—the principal propionibacterial strain used in these studies was Propionibacterium acnes NCTC 737.
(§12) The Propionibacterium spp organisms were cultured and maintained on Wilkins-Chalgren Anaerobe Medium (agar and broth) at pH 6.0; cultures were incubated anaerobically at 37° C. for 72 hours.
as §2, §3, §4
(§13) MIC, MBC and DDA assays, as described above, were carried out using a range of different benzoquinones and hydroquinones. Supplemented DDA assays, in the presence of salt and lipid, were also conducted.

[6] = test system: P. acnes NCTC 737; assay: MBC assay; assay type: cell-based, Propionibacterium acnes
Method: as §12, §6, §7, §13

[7] = test system: P. acnes NCTC 737; assay: Disc diffusion assay (DDA); assay type: cell-based, Propionibacterium acnes; conditions: for zone of inhibition at 200 µg/disc: Cutibacterium acnes
Method: as §12, §8, §9, §10

[8] = test system: P. acnes NCTC 737; assay: Supplemented disc diffusion assay; assay type: cell-based, Propionibacterium acnes; conditions: for zone of inhibition at 200 µg/disc: Cutibacterium acnes, NCTC737, 72 h; for effect of lipid on antimicrobial activity: activity increases in the presence of lipid
Method: as §12, §8, §11, §13, §10

[9] = Staphylococcus aureus, ATCC29213, S. aureus ATCC 29213, Mueller-Hinton broth pH 7.2, aerobic, 37° C., 24 hours, read-out: MIC
[10] = Staphylococcus aureus, ATCC29213, read-out: MBC
[11] = ATCC29213, S. aureus ATCC 29213, unsupplemented agar, 200 μg per disc (thymoquinone 50 μg, 2,6-dimethoxy-p-benzoquinone 100 μg), read-out: DDA (diameter of zone of inhibition)
[12] = S. aureus ATCC 29213, Tween 80 at 1% v/v, 200 μg per disc (thymoquinone 50 μg, 2,6-dimethoxy-p-benzoquinone 100 μg), read-out: DDA + lipid
[13] = S. aureus ATCC 29213, defibrinated horse blood 5% v/v, 200 μg per disc (thymoquinone 50 μg, 2,6-dimethoxy-p-benzoquinone 100 μg), read-out: DDA + blood
[14] = S. aureus ATCC 29213, sodium chloride 100 mM, 200 μg per disc (thymoquinone 50 μg, 2,6-dimethoxy-p-benzoquinone 100 μg), read-out: DDA + salt
[15] = Cutibacterium acnes, NCTC737, P. acnes NCTC 737, Wilkins-Chalgren broth pH 6.0, anaerobic, 37° C., 72 hours, read-out: MIC
[16] = Cutibacterium acnes, NCTC737, P. acnes NCTC 737, read-out: MBC
[17] = NCTC737, P. acnes NCTC 737, unsupplemented agar, 200 μg per disc (2,6-dimethoxy-p-benzoquinone 100 μg), read-out: DDA (diameter of zone of inhibition)
[18] = P. acnes NCTC 737, Tween 80 at 1% v/v, 200 μg per disc (2,6-dimethoxy-p-benzoquinone 100 μg), read-out: DDA + lipid
[19] = P. acnes NCTC 737, sodium chloride 100 mM, 200 μg per disc (2,6-dimethoxy-p-benzoquinone 100 μg), read-out: DDA + salt

SMILES | MIC [1, 9] | MIC/MBC ratio [2] | MBC [2, 10] | zone of inhibition at 200 µg/disc [3, 11] | zone of inhibition at 200 µg/disc [4, 12] | zone of inhibition at 200 µg/disc [4, 13] | zone of inhibition at 200 µg/disc [4, 14] | MIC [5, 15] | MBC [6, 16] | MIC/MBC ratio ([6]; P. acnes NCTC 737) | zone of inhibition at 200 µg/disc [7, 17] | zone of inhibition at 200 µg/disc [8, 18] | zone of inhibition at 200 µg/disc [8, 19] | effect of lipid on antimicrobial activity ([8]; P. acnes NCTC 737) | also measured
CC(C)(C)C1=CC(=O)C=CC1=O [2-t-butyl-p-benzoquinone] | 15.6 µg/mL (≈ 95 µM) | 1 | 15.6 µg/mL (≈ 95 µM) | 58.5 mm | > 90 mm | 10.9 mm | 54.7 mm | 7.8 µg/mL (≈ 47.5 µM) | 15.6 µg/mL (≈ 95 µM) | 0.5 | 60.8 mm | > 90 mm | > 90 mm | potentiated | 
CC1=CC(=O)C=CC1=O [2-methyl-p-benzoquinone] |  | 1 |  |  |  |  |  |  |  | 0.5 |  |  |  | potentiated | MIC ([1]; Staphylococcus aureus, ATCC29213, 24 h, pH 7.2): 15.6 µg/mL (≈ 128 µM); MBC ([2]; Staphylococcus aureus, ATCC29213): 15.6 µg/mL (≈ 128 µM); zone of inhibition at 200 µg/disc ([3]; ATCC29213, read-out: DDA (diameter of zone of inhibition)): 35.1 mm; zone of inhibition at 200 µg/disc ([4]; read-out: DDA + blood): 15.9 mm; zone of inhibition at 200 µg/disc ([4]; read-out: DDA + lipid): 35.6 mm; zone of inhibition at 200 µg/disc ([4]; read-out: DDA + salt): 35 mm; activity against P. acnes NCTC 737 (in words) [5]: strongly so; MIC ([5]; Cutibacterium acnes, NCTC737, 72 h, pH 6): 15.6 µg/mL (≈ 128 µM); MBC ([6]; Cutibacterium acnes, NCTC737): 31.2 µg/mL (≈ 256 µM); zone of inhibition at 200 µg/disc ([7]; NCTC737, read-out: DDA (diameter of zone of inhibition)): 35.9 mm; zone of inhibition at 200 µg/disc ([8]; read-out: DDA + lipid): 48.9 mm; zone of inhibition at 200 µg/disc ([8]; read-out: DDA + salt): 42.6 mm
COC1=C(OC)C(=O)C(C)=CC1=O [2,3-dimethoxy-5-methyl-p-benzoquinone] | 7.8 µg/mL (≈ 42.8 µM) | 0.5 | 15.6 µg/mL (≈ 85.6 µM) | 26.8 mm | 26.5 mm | 19.9 mm | 25.8 mm | 15.6 µg/mL (≈ 85.6 µM) | 31.2 µg/mL (≈ 172 µM) | 0.5 | 33.4 mm | 44 mm | 43.4 mm | potentiated | 
Oc1c(F)c(F)c(O)c(F)c1F [tetrafluoro-p-hydroquinone] |  | 1 |  |  |  |  |  |  |  | 0.5 |  |  |  |  | MIC ([1]; S. aureus ATCC 29213, Mueller-Hinton broth pH 7.2, aerobic, 37° C., 24 hours): 125 µg/mL (≈ 687 µM); MBC [2]: 125 µg/mL (≈ 687 µM); DDA (diameter of zone of inhibition) ([3]; S. aureus ATCC 29213, unsupplemented agar, 200 μg per disc (thymoquinone 50 μg, 2,6-dimethoxy-p-benzoquinone 100 μg)): 10.83 mm; DDA + lipid ([4]; S. aureus ATCC 29213, Tween 80 at 1% v/v, 200 μg per disc (thymoquinone 50 μg, 2,6-dimethoxy-p-benzoquinone 100 μg)): 9.38 mm; DDA + blood ([4]; S. aureus ATCC 29213, defibrinated horse blood 5% v/v, 200 μg per disc (thymoquinone 50 μg, 2,6-dimethoxy-p-benzoquinone 100 μg)): 0.0 mm; DDA + salt ([4]; S. aureus ATCC 29213, sodium chloride 100 mM, 200 μg per disc (thymoquinone 50 μg, 2,6-dimethoxy-p-benzoquinone 100 μg)): 11.25 mm; MIC ([5]; P. acnes NCTC 737, Wilkins-Chalgren broth pH 6.0, anaerobic, 37° C., 72 hours): 62.5 µg/mL (≈ 343 µM); MBC ([6]; P. acnes NCTC 737): 125 µg/mL (≈ 687 µM); DDA (diameter of zone of inhibition) ([7]; P. acnes NCTC 737, unsupplemented agar, 200 μg per disc (2,6-dimethoxy-p-benzoquinone 100 μg)): 33.86 mm; DDA + lipid ([8]; P. acnes NCTC 737, Tween 80 at 1% v/v, 200 μg per disc (2,6-dimethoxy-p-benzoquinone 100 μg)): 0.0 mm; DDA + salt ([8]; P. acnes NCTC 737, sodium chloride 100 mM, 200 μg per disc (2,6-dimethoxy-p-benzoquinone 100 μg)): 36.35 mm
